Tested on: T. cruzi
Assay: 2D-GE plasma proteome profile (differential protein expression) of T. cruzi-infected rats treated with PBN and/or BZ
Format: in vivo, rat
Details: for expression of inflammation-associated plasma proteins: APOH
Source text: Certain embodiments include biomarkers identified in a previous study. Parasite persistence and oxidative damage in the heart are known to be of pathological significance during Chagas disease (Zacks et al., (2005) An Acad Bras Cienc, 77, 695-715; Gupta et al., (2009) Interdiscip Perspect Infect Dis, 2009, 190354). […] In the previous study the inventors identified 92 proteins that were differentially expressed or oxidized in chagasic plasma. Functional analysis allocated a majority of these proteins to inflammation/immunity and lipid metabolism categories, and to molecular pathways associated with cardiovascular dysfunction, e.g., myocardial infarction, hypertrophy, and fibrosis, and pulmonary embolism and hypertension. Some proteins in chagasic rats treated with PBN and/or BZ were allocated to curative pathways (immune regulation and cardiac remodeling). The 2D-GE results were validated by Western blotting. […] Increased plasma levels of GSN, MYL2, and VIM were directly correlated with the severity of cardiac disease in human chagasic patients. […] These findings have utility in diagnosing disease severity and designing suitable therapy for management of human chagasic patients.
Ingenuity Pathway Analysis (IPA) is a highly curated and comprehensive software used for the integration of proteins into networks and pathways with biological meaning (Thomas and Bonchev, (2010). Hum Genomics, 4, 353-360). Network analysis of the plasma proteome profile of chagasic rats identified four major sub-networks linked to host response to T. cruzi infection and disease development (Table V). The maximal numbers of the differentially expressed plasma proteins (19 proteins) in chagasic rats were associated with antigen presentation and inflammatory response category (Table V) and indicators of persistent inflammation, known to be of pathological significance in Chagas disease (Dhiman et al., (2009) Clinical and Vaccine Immunology, 16, 660-666; Tanowitz et al., (2009) Prog Cardiovasc Dis, 51, 524-539; Junqueira et al., (2010) Expert Rev Mol Med, 12, e29). Following functional analysis of the inflammation-associated proteins, 12 proteins (APOA1, APOE, C3, CFB, CFH, FGB, GSN, KRT10, PLG, SCG2, SERPINA1, and SERPINC1) were identified as being involved in immune cell trafficking and cell movement of leukocytes, granulocytes, phagocytes, neutrophils, and dendritic and antigen presenting cells. Some of the differentially expressed proteins in inflammation category were associated with activation (APOE, C3, CFH, GC and PLG), chemotaxis (C3, SCG2, SERPINA1, SERPINC1), and infiltration of leukocytes (APOA1, APOE, C3, PLG, KRT10) and neutrophils (C3, CFB, CFH, PLG). Up regulation of APOE, APOA1, APOH, GC and PLG in chagasic plasma was indicative of activation, binding and accumulation of macrophages in the disease state. Of the 19 differentially expressed inflammation-associated proteins, 11 proteins (APOE, C3, CFB, CFH, GSN, KRT10, SCG2, SERPINA1, SERPINC1, GC, and PLG) were carbonylated in chagasic plasma. […] Other proteins (APOE, C3, KRT3, and SCG2) were exposed to oxidation due to T. cruzi-induced, acute oxidative stress, but were normalized in expression and oxidation during the chronic phase.
Seventeen of the differentially expressed proteins in chagasic plasma, i.e., AFM, C4BPA, CACNA1D, DLGAP2, GC, KNG1, MUG1, MYLPF, MY05A, MY05B, PRPH, PZP, RAI14, and SCG2, were allotted to the lipid metabolism/molecular transport/small molecule biochemistry category (Table V) and functionally linked by IPA network analysis to lipid, fatty acid, and carbohydrate metabolism. A majority of the proteins in this category, i.e., ALB, APOA1, APOA4, APOE, APOH, C3, GC, GNAQ, MY05A, PLG, SCD2, SERPINA1, SERPINC1 and VIM, were linked to the synthesis, metabolism, transport, and modification of lipids and fatty acids, and to uptake and release or efflux of lipids, eicosanoids, and cholesterol. […]

[1] = plasma, RAP group (acute infection)

CC(C)(C)/[N+]([O-])=C/c1ccccc1 [PBN]
expression of inflammation-associated plasma proteins (acutely infected rats, APOE, CFH, PLG and SCG2): normalized or regulated the expression
expression of inflammation-associated plasma proteins (chronically infected rats, GC, GSN and PLG): normalized or regulated the expression
expression level of CFB, GSN, C3, and SERPINC1 (infected rats): partly regulated
Spot# 12, 180 Average Normalized Density × 100,000 [1]: 21.47
Spot# 34 Average Normalized Density × 100,000 [1]: 0.37
Spot# 37, 593 Average Normalized Density × 100,000 [1]: 14.38
Spot# 49, 673 Average Normalized Density × 100,000 [1]: 19.12
Spot# 52, 54, 302 Average Normalized Density × 100,000 [1]: 9.80
Spot# 53, 225 Average Normalized Density × 100,000 [1]: 8.76
Spot# 72 Average Normalized Density × 100,000 [1]: 18.10
Spot# 73, 705, 787 Average Normalized Density × 100,000 [1]: 46.94
Spot# 77 Average Normalized Density × 100,000 [1]: 16.3
Spot# 88 Average Normalized Density × 100,000 [1]: 74.61
Spot# 94 Average Normalized Density × 100,000 [1]: 1.84
Spot# 115, 123 Average Normalized Density × 100,000 [1]: 22.27
Spot# 149 Average Normalized Density × 100,000 [1]: 0.78
Spot# 153 Average Normalized Density × 100,000 [1]: 27.07
Spot# 177 Average Normalized Density × 100,000 [1]: 3.71
Spot# 181 Average Normalized Density × 100,000 [1]: 3.99
Spot# 184, 257, 328 Average Normalized Density × 100,000 [1]: 4.54
Spot# 207, 555 Average Normalized Density × 100,000 [1]: 13.23
Spot# 215 Average Normalized Density × 100,000 [1]: 1.73
Spot# 266 Average Normalized Density × 100,000 [1]: 0.75
Spot# 299 Average Normalized Density × 100,000 [1]: 1.92
Spot# 315 Average Normalized Density × 100,000 [1]: 6.24
Spot# 334 Average Normalized Density × 100,000 [1]: 0.61
Spot# 341 Average Normalized Density × 100,000 [1]: 0.59
Spot# 355, 359 Average Normalized Density × 100,000 [1]: 2.99
Spot# 382, 385, 378, 572, 578, 595 Average Normalized Density × 100,000 [1]: 33.76
Spot# 389 Average Normalized Density × 100,000 [1]: 37.55
Spot# 430 Average Normalized Density × 100,000 [1]: 22.40
Spot# 434, 678 Average Normalized Density × 100,000 [1]: 55.14
Spot# 439 Average Normalized Density × 100,000 [1]: 4.04
Spot# 452 Average Normalized Density × 100,000 [1]: 18.92
Spot# 464 Average Normalized Density × 100,000 [1]: 3.89
Spot# 479 Average Normalized Density × 100,000 [1]: 23.96
Spot# 493 Average Normalized Density × 100,000 [1]: 9.82
Spot# 515 Average Normalized Density × 100,000 [1]: 6.87
Spot# 524 Average Normalized Density × 100,000 [1]: 53.74
Spot# 551, 587, 908 Average Normalized Density × 100,000 [1]: 88.04
Spot# 559 Average Normalized Density × 100,000 [1]: 24.39
Spot# 571 Average Normalized Density × 100,000 [1]: 7.84
Spot# 576, 620 Average Normalized Density × 100,000 [1]: 18.08
Spot# 586, 614 Average Normalized Density × 100,000 [1]: 50.44
Spot# 592 Average Normalized Density × 100,000 [1]: 15.61
Spot# 604 Average Normalized Density × 100,000 [1]: 22.81
Spot# 606 Average Normalized Density × 100,000 [1]: 9.60
Spot# 627 Average Normalized Density × 100,000 [1]: 30.23
Spot# 638 Average Normalized Density × 100,000 [1]: 4.42
Spot# 649 Average Normalized Density × 100,000 [1]: 40.69
Spot# 651 Average Normalized Density × 100,000 [1]: 94.03
Spot# 655 Average Normalized Density × 100,000 [1]: 240.6
Spot# 672 Average Normalized Density × 100,000 [1]: 7.34
Spot# 676 Average Normalized Density × 100,000 [1]: 14.69
Spot# 691 Average Normalized Density × 100,000 [1]: 49.99
Spot# 715 Average Normalized Density × 100,000 [1]: 10.83
Spot# 724 Average Normalized Density × 100,000 [1]: 1.72
Spot# 728 Average Normalized Density × 100,000 [1]: 0.76
Spot# 733 Average Normalized Density × 100,000 [1]: 2.24
Spot# 740 Average Normalized Density × 100,000 [1]: 7.81
Spot# 745 Average Normalized Density × 100,000 [1]: 4.51
Spot# 749 Average Normalized Density × 100,000 [1]: 4.71
Spot# 766 Average Normalized Density × 100,000 [1]: 3.20
Spot# 779, 909 Average Normalized Density × 100,000 [1]: 5.45
Spot# 796 Average Normalized Density × 100,000 [1]: 9.97
Spot# 814 Average Normalized Density × 100,000 [1]: 0.60
Spot# 817 Average Normalized Density × 100,000 [1]: 12.14
Spot# 820, 1081 Average Normalized Density × 100,000 [1]: 4.59
Spot# 827 Average Normalized Density × 100,000 [1]: 17.91
Spot# 832 Average Normalized Density × 100,000 [1]: 6.23
Spot# 860 Average Normalized Density × 100,000 [1]: 3.06
Spot# 867 Average Normalized Density × 100,000 [1]: 2.56
Spot# 881 Average Normalized Density × 100,000 [1]: 13.92
Spot# 897 Average Normalized Density × 100,000 [1]: 4.82
Spot# 900 Average Normalized Density × 100,000 [1]: 25.94
Spot# 906 Average Normalized Density × 100,000 [1]: 49.40
Spot# 966 Average Normalized Density × 100,000 [1]: 53.33
